Data reported in PubChem BioAssay (NCI).
Where “and” joins values, the source holds several entries; their conditions need not be identical. Equal entries are not always repeated.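 Growth conditions: 96-well plates. Treatment: test compound, 48 hours, 5 concentrations. Analysis: linear interpolation between bracketing concentrations; unreached endpoints set to highest concentration. Here, GI50 denotes the concentration required for 50% inhibition of growth. At the TGI there is no net growth.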

Assays:
Assay in all cases: inhibition of tumour cell growth, NCI panel, 48 h
SK-MEL-2 melanoma = system: SK-MEL-2 melanoma
UO-31 renal = system: UO-31 renal
NCI-H23 lung = system: NCI-H23 lung
U251 CNS = system: U251 CNS
SK-MEL-28 melanoma = system: SK-MEL-28 melanoma
A549 NSCLC = system: A549 NSCLC
TK-10 renal = system: TK-10 renal
A498 renal = system: A498 renal
786-0 renal = system: 786-0 renal
MCF7 breast = system: MCF7 breast

SMILES | GI50 (SK-MEL-2 melanoma) | TGI (SK-MEL-2 melanoma) | GI50 (UO-31 renal) | TGI (UO-31 renal) [µM] | GI50 (NCI-H23 lung) | TGI (NCI-H23 lung) | GI50 (U251 CNS) | TGI (U251 CNS) [µM] | GI50 (SK-MEL-28 melanoma) | TGI (SK-MEL-28 melanoma) | GI50 (A549 NSCLC) | TGI (A549 NSCLC) | TGI (TK-10 renal) | GI50 (A498 renal) [µM] | TGI (A498 renal) [µM] | GI50 (786-0 renal) | TGI (786-0 renal) [µM] | GI50 (MCF7 breast) | TGI (MCF7 breast) [µM] | GI50 (TK-10 renal)
CCN1C(=S)N(c2ccccc2)C2NC(=S)N(/N=C/C=C/c3ccccc3OC)C21 (centres undefined) | 0.612 µM | > 100 µM | 0.675 µM | > 100 | 0.658 µM | > 100 µM | 0.393 µM | > 100 | 1.47 µM | > 100 µM | 0.607 µM | > 100 µM | > 100 µM | 0.235 | 0.833 | 0.639 µM | > 100 | 0.331 µM | > 100 | –
Cc1cc(S(=O)(=O)Nc2nc3ccccc3o2)c(SCc2ccccc2)cc1Cl | 48.6 µM | > 100 µM | 32.9 µM | > 100 | 19 µM | 40.3 µM | 16.1 µM | 31 | 25.6 µM | 62.9 µM | 21.7 µM | 45.3 µM | 90.7 µM | 23.1 | 43.3 | 20.8 µM | 47.2 | 22.4 µM | 78.3 | 28.6 µM
CCOC(=O)c1cc(C(=O)c2cc(OC)c(OC)c(OC)c2)n2ncccc12 | 0.466 µM | > 100 µM | 0.782 µM | > 100 | 0.707 µM | > 100 µM | 0.444 µM | 37.1 | 4.68 µM | > 100 µM | 0.621 µM | > 100 µM | > 100 µM | 0.0466 | 0.742 | 2.17 µM | > 100 | 0.131 µM | > 100 | 26.4 µM
COC(=O)c1n[nH]c(C)c1N=NN(C)CCC#N | – | 61.9 µM | – | 13.3 | – | 36.5 µM | – | 41.5 | – | > 100 µM | – | > 100 µM | 62.4 µM | – | > 100 | – | 48.4 | – | 25.7 | –
CN(c1ncccc1CNc1nc(Nc2ccc3c(c2)CC(=O)N3)ncc1C(F)(F)F)S(C)(=O)=O | 1.57 µM and 1.85 µM | 3.69 µM and 4.8 µM | 2.88 µM and 2.82 µM | > 28.7 | 1.79 µM and 2.16 µM | 4.88 µM and 6.35 µM | 2.17 µM and 2.76 µM | > 47.3 | 2.07 µM and 2.92 µM | 6.58 µM and > 10 µM | 2.56 µM and 2.92 µM | 12.2 µM and > 10 µM | 7.82 µM and > 10 µM | 2.81 | 7.14 | 3.02 µM and 2.51 µM | > 83.8 | 0.948 µM and 1.1 µM | > 27 | 1.87 µM and 1.75 µM
CC(N)C(Cc1ccc(Cl)cc1)c1ccc(Cl)cc1 (centres undefined) | 13 µM | 27 µM | 7.12 µM | 20.9 | 13.4 µM | 27.8 µM | 12.3 µM | 25.9 | 3.86 µM | 15.9 µM | 14 µM | 29.4 µM | 26.2 µM | 15.1 | 30.7 | 10.2 µM | 24.3 | 2.99 µM | 12.5 | 12.6 µM
c1ccc([P+](CCSCCSCC[P+](c2ccccc2)(c2ccccc2)c2ccccc2)(c2ccccc2)c2ccccc2)cc1 | – | > 100 µM | – | > 100 | – | > 100 µM | – | > 100 | – | > 100 µM | – | > 100 µM | > 100 µM | – | > 100 | – | > 100 | – | > 100 | –
